The source of these data is US20260201008A1, “SECRETIN-DERIVED GLP1R SELECTIVE AGONISTS” (GUBRA A/S, priority 2023, published 2026).

Numbered stars: 1 amine (or outer) side, 2 acyl side, 3 side chain; on linkers, the order of the positions; unused ones are H or OH. Square brackets hold non-standard residues; d marks the D form. Side chains are listed from the residue outwards. Peptide text beside a SMILES is read from it. * marks the point of attachment. C20 diacid = O=C(O)CCCCCCCCCCCCCCCCCCC(=O)*; γGlu = O=C(O)[C@H](CCC(=O)[*:2])N[*:1]; AEEA = NCCOCCOCC(=O)O; Aib = CC(C)(N)C(=O)O

Data set [1] is described as follows: Turbidity of crude library peptides (absorbance at 600 nm). In kind it is physicochemical. The settings on record: Physical stability of peptides. Summed up:
(§1)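 Turbidity is the absorbance at 600 nm, taken before heating. Fibril signal is the mean ThT emission at 480 nm (450 nm excitation), read every 10 min over 72 h at 40° C with 700 rpm shaking between reads. Peptides at 267 μM, pH 4.0 acetate or pH 7.0 phosphate buffer (50 mM), 4 μM ThT final.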

Data set [2] in a line: Fibril formation of crude library peptides (Thioflavin T). Type of data set: physicochemical. On the set-up: key: average ThT fluorescence emission at 480 nm (ex 450 nm), raw units. Particulars: Physical stability of peptides. Summed up: as §1
The target of a further data set is GLP1R (Homo sapiens, UniProt P43220). The data set can be described thus: hGLP1R potency, cAMP accumulation in CHO-K1 cells stably overexpressing hGLP1R. The settings on record: for Selectivity: SCTR EC50/GLP1R EC50 ratio; for EC50: cAMP accumulation, CHO-K1 cells overexpressing hGLP1R, read-out: pEC50 hGLPR1 (converted). Type of data set: cell-based. Further details: host or cells: CHO-K1. Summed up:
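EC50 derives from variable-slope nonlinear regression of cAMP HTRF signal, with purified peptides tested as 11 three-fold dilutions in duplicate. Assay: hGLP1R-overexpressing CHO-K1 cells, 0.5 mM IBMX, 0.05% casein in DPBS, 30 min room-temperature stimulation, GLP-1(7-36) as reference agonist.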

Another data set has as its target SCTR (Homo sapiens, UniProt P47872). Briefly: hSCTR potency, cAMP accumulation in CHO-K1 cells stably overexpressing hSCTR. In kind it is cell-based. On the set-up: alternatively Euroscreen ES-712-AF; FAST-0161L; host or cells: CHO-K1. Particulars: cAMP accumulation, CHO-K1 cells overexpressing hSCTR; read-out: pEC50 hSCTR (converted). Summed up:
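EC50 derived from variable-slope nonlinear regression on 11-point, 3-fold series run in duplicate (crude peptides: 5 points, 10-fold, n=1). Compound stimulation lasted 30 min at room temperature in casein/IBMX-containing DPBS (0.05%, 0.5 mM), 2000 cells/well; cAMP detected by time-resolved FRET after one hour.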

Sequence of SCTR (P47872 23-440): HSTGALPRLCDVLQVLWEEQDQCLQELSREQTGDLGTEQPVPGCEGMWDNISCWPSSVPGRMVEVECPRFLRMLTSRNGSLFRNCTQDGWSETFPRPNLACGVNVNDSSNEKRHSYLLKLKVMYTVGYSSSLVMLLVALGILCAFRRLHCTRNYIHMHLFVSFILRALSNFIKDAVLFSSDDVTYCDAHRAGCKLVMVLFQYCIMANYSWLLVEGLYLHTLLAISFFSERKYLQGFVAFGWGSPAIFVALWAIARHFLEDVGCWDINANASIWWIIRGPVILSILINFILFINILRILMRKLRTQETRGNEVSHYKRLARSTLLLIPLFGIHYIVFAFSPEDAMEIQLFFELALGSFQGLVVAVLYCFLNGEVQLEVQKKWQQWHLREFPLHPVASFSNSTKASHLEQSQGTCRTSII
Sequence of GLP1R (P43220 24-463): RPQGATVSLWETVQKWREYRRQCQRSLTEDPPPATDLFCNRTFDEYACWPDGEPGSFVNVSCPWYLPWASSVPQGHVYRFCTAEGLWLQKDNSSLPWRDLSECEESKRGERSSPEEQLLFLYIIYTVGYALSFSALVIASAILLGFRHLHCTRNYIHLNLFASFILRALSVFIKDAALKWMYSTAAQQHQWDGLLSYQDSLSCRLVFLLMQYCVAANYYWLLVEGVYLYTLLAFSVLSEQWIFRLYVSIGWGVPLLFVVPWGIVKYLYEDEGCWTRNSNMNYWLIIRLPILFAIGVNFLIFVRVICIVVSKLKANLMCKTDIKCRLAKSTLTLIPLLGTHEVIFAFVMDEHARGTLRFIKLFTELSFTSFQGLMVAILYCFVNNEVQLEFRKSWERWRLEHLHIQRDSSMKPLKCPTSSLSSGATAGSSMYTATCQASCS

Take `CC(C)C[C@H](NC(=O)[C@H](Cc1ccccc1)NC(=O)[C@H](CCCNC(=N)N)NC(=O)[C@H](CCC(N)=O)NC(=O)C(C)(C)NC(=O)[C@H](C)NC(=O)[C@H](C)NC(=O)[C@H](CCC(=O)O)NC(=O)[C@H](CCC(=O)O)NC(=O)[C@H](CCCCNC(=O)COCCOCCNC(=O)COCCOCCNC(=O)CC[C@H](NC(=O)CCCCCCCCCCCCCCCCCCC(=O)O)C(=O)O)NC(=O)[C@H](CC(C)C)NC(=O)[C@@H](NC(=O)[C@H](CO)NC(=O)[C@@H](NC(=O)[C@H](CC(=O)O)NC(=O)[C@H](CO)NC(=O)[C@@H](NC(=O)[C@H](Cc1ccccc1)NC(=O)[C@@H](NC(=O)CNC(=O)[C@H](CCC(=O)O)NC(=O)C(C)(C)NC(=O)[C@@H](N)Cc1c[nH]cn1)[C@@H](C)O)[C@@H](C)O)C(C)C)[C@@H](C)O)C(=O)N[C@@H](CCC(=O)O)C(=O)N[C@@H](Cc1c[nH]cn1)C(=O)N[C@@H](CC(C)C)C(=O)N[C@H](C(N)=O)C(C)C` [compound 77] (H-H[Aib]EGTFTSDVSTLK([AEEA-AEEA-γGlu-C20 diacid])EEAA[Aib]QRFLEHLV-NH2): the “Turbidity (pH 7)” value in data set [1] is listed as 0.08. This molecule also gave a Fibril formation in data set [2] of 11936. At GLP1R, the Selectivity is recorded as 74783 and the EC50 was 0.02 nM. In addition, at SCTR, the EC50 was 1580 nM.

In the case of `CC(C)C[C@H](NC(=O)[C@H](CCC(=O)O)NC(=O)[C@H](CCCCNC(=O)COCCOCCNC(=O)COCCOCCNC(=O)CC[C@H](NC(=O)CCCCCCCCCCCCCCCCCCC(=O)O)C(=O)O)NC(=O)[C@H](CC(C)C)NC(=O)[C@@H](NC(=O)[C@H](CO)NC(=O)[C@@H](NC(=O)[C@H](CC(=O)O)NC(=O)[C@H](CO)NC(=O)[C@@H](NC(=O)[C@H](Cc1ccccc1)NC(=O)[C@@H](NC(=O)CNC(=O)[C@H](CCC(=O)O)NC(=O)C(C)(C)NC(=O)[C@@H](N)Cc1c[nH]cn1)[C@@H](C)O)[C@@H](C)O)C(C)C)[C@@H](C)O)C(=O)N[C@@H](C)C(=O)N[C@@H](C)C(=O)N[C@@H](CCC(=O)O)C(=O)N[C@@H](CCC(N)=O)C(=O)N[C@@H](CCCNC(=N)N)C(=O)N[C@@H](Cc1ccccc1)C(=O)N[C@@H](CC(C)C)C(=O)N[C@@H](CCC(=O)O)C(=O)N[C@@H](Cc1c[nH]cn1)C(=O)N[C@@H](CC(C)C)C(=O)N[C@H](C(N)=O)C(C)C` [compound 78] (H-H[Aib]EGTFTSDVSTLK([AEEA-AEEA-γGlu-C20 diacid])ELAAEQRFLEHLV-NH2), the “Turbidity (pH 7)” value in data set [1] turned out to be 0.08. This molecule had a Fibril formation in data set [2] of 8551. Also, on GLP1R, the Selectivity was 72127 and the EC50 was 0.0501 nM. Moreover, the EC50 on SCTR was 3980 nM.

Consider `CC(C)C[C@H](NC(=O)[C@H](CCC(=O)O)NC(=O)[C@H](CCCCNC(=O)COCCOCCNC(=O)COCCOCCNC(=O)CC[C@H](NC(=O)CCCCCCCCCCCCCCCCCCC(=O)O)C(=O)O)NC(=O)[C@H](CC(C)C)NC(=O)[C@@H](NC(=O)[C@H](CO)NC(=O)[C@@H](NC(=O)[C@H](CC(=O)O)NC(=O)[C@H](CO)NC(=O)[C@@H](NC(=O)[C@H](Cc1ccccc1)NC(=O)[C@@H](NC(=O)CNC(=O)[C@H](CCC(=O)O)NC(=O)C(C)(C)NC(=O)[C@@H](N)Cc1c[nH]cn1)[C@@H](C)O)[C@@H](C)O)C(C)C)[C@@H](C)O)C(=O)N[C@@H](C)C(=O)N[C@@H](C)C(=O)NC(C)(C)C(=O)N[C@@H](CCC(N)=O)C(=O)N[C@@H](CCCNC(=N)N)C(=O)N[C@@H](Cc1ccccc1)C(=O)N[C@@H](CC(C)C)C(=O)N[C@@H](CCC(=O)O)C(=O)N[C@@H](Cc1c[nH]cn1)C(=O)N[C@@H](CC(C)C)C(=O)N[C@H](C(N)=O)C(C)C` [compound 79] (H-H[Aib]EGTFTSDVSTLK([AEEA-AEEA-γGlu-C20 diacid])ELAA[Aib]QRFLEHLV-NH2), for which the “Turbidity (pH 7)” value in data set [1] is on record as 0.08. This molecule also yielded a Fibril formation in data set [2] of 12190. On GLP1R, the Selectivity is 30234 and the EC50 was 0.1 nM. The EC50 at SCTR was 3160 nM.

On to `CC(C)C[C@H](NC(=O)[C@H](CCC(=O)O)NC(=O)[C@H](CCCCNC(=O)COCCOCCNC(=O)COCCOCCNC(=O)CC[C@H](NC(=O)CCCCCCCCCCCCCCCCCCC(=O)O)C(=O)O)NC(=O)[C@H](CC(C)C)NC(=O)[C@H](CCC(=O)O)NC(=O)[C@H](CO)NC(=O)[C@@H](NC(=O)[C@H](CC(=O)O)NC(=O)[C@H](CO)NC(=O)[C@@H](NC(=O)[C@H](Cc1ccccc1)NC(=O)[C@@H](NC(=O)CNC(=O)[C@H](CCC(=O)O)NC(=O)C(C)(C)NC(=O)[C@@H](N)Cc1c[nH]cn1)[C@@H](C)O)[C@@H](C)O)C(C)C)C(=O)N[C@@H](C)C(=O)N[C@@H](C)C(=O)N[C@H](C(=O)N[C@@H](CCC(N)=O)C(=O)N[C@@H](CCCNC(=N)N)C(=O)N[C@@H](Cc1ccccc1)C(=O)N[C@@H](CC(C)C)C(=O)N[C@@H](CCC(=O)O)C(=O)N[C@@H](Cc1c[nH]cn1)C(=O)N[C@@H](CC(C)C)C(=O)N[C@H](C(N)=O)C(C)C)[C@@H](C)O` [compound 80] (H-H[Aib]EGTFTSDVSELK([AEEA-AEEA-γGlu-C20 diacid])ELAATQRFLEHLV-NH2), for which the “Turbidity (pH 7)” value in data set [1] is listed as 0.08. Besides, the Fibril formation in data set [2] stood at 6999. Besides, on GLP1R, the Selectivity was determined as 33512 and the EC50 is 0.02 nM. The EC50 on SCTR was 794 nM.

Turning to `CC(C)C[C@H](NC(=O)[C@H](Cc1ccccc1)NC(=O)[C@H](CCCNC(=N)N)NC(=O)[C@H](CCC(N)=O)NC(=O)[C@H](C)NC(=O)[C@H](C)NC(=O)[C@H](C)NC(=O)C(C)(C)NC(=O)[C@H](CCC(=O)O)NC(=O)[C@H](CCCCNC(=O)COCCOCCNC(=O)COCCOCCNC(=O)CC[C@H](NC(=O)CCCCCCCCCCCCCCCCCCC(=O)O)C(=O)O)NC(=O)[C@H](CC(C)C)NC(=O)[C@H](CCCNC(=N)N)NC(=O)[C@H](CO)NC(=O)[C@@H](NC(=O)[C@H](CC(=O)O)NC(=O)[C@H](CO)NC(=O)[C@@H](NC(=O)[C@H](Cc1ccccc1)NC(=O)[C@@H](NC(=O)CNC(=O)[C@H](CCC(=O)O)NC(=O)C(C)(C)NC(=O)[C@@H](N)Cc1c[nH]cn1)[C@@H](C)O)[C@@H](C)O)C(C)C)C(=O)N[C@@H](CCC(=O)O)C(=O)N[C@@H](Cc1c[nH]cn1)C(=O)N[C@@H](CC(C)C)C(=O)N[C@H](C(N)=O)C(C)C` [compound 81] (H-H[Aib]EGTFTSDVSRLK([AEEA-AEEA-γGlu-C20 diacid])E[Aib]AAAQRFLEHLV-NH2), in data set [1], the “Turbidity (pH 7)” value was determined as 0.08. The same molecule showed a Fibril formation in data set [2] of 10620. In addition, on GLP1R, the Selectivity is listed as 1217 and the EC50 is 0.0794 nM. In addition, at SCTR, the EC50 was 79.4 nM.

Take `CC(C)C[C@H](NC(=O)[C@H](Cc1ccccc1)NC(=O)[C@H](CCCNC(=N)N)NC(=O)[C@H](CCC(N)=O)NC(=O)[C@@H](NC(=O)[C@H](C)NC(=O)[C@H](C)NC(=O)C(C)(C)NC(=O)[C@H](CCC(=O)O)NC(=O)[C@H](CCCCNC(=O)COCCOCCNC(=O)COCCOCCNC(=O)CC[C@H](NC(=O)CCCCCCCCCCCCCCCCCCC(=O)O)C(=O)O)NC(=O)[C@H](CC(C)C)NC(=O)[C@H](CCC(=O)O)NC(=O)[C@H](CO)NC(=O)[C@@H](NC(=O)[C@H](CC(=O)O)NC(=O)[C@H](CO)NC(=O)[C@@H](NC(=O)[C@H](Cc1ccccc1)NC(=O)[C@@H](NC(=O)CNC(=O)[C@H](CCC(=O)O)NC(=O)C(C)(C)NC(=O)[C@@H](N)Cc1c[nH]cn1)[C@@H](C)O)[C@@H](C)O)C(C)C)[C@@H](C)O)C(=O)N[C@@H](CCC(=O)O)C(=O)N[C@@H](Cc1c[nH]cn1)C(=O)N[C@@H](CC(C)C)C(=O)N[C@H](C(N)=O)C(C)C` [compound 82] (H-H[Aib]EGTFTSDVSELK([AEEA-AEEA-γGlu-C20 diacid])E[Aib]AATQRFLEHLV-NH2): the “Turbidity (pH 7)” value in data set [1] came out at 0.08. In addition, the Fibril formation in data set [2] is 8549. Besides, at GLP1R, the Selectivity is 11264 and the EC50 is 0.01 nM. For the same molecule, the EC50 on SCTR was 100 nM.

As for `CC(C)C[C@H](NC(=O)[C@H](Cc1ccccc1)NC(=O)[C@H](CCCNC(=N)N)NC(=O)[C@H](CCC(N)=O)NC(=O)[C@H](CCC(N)=O)NC(=O)[C@H](C)NC(=O)[C@H](C)NC(=O)[C@H](CCC(=O)O)NC(=O)[C@H](CCC(=O)O)NC(=O)[C@H](CCCCNC(=O)COCCOCCNC(=O)COCCOCCNC(=O)CC[C@H](NC(=O)CCCCCCCCCCCCCCCCCCC(=O)O)C(=O)O)NC(=O)[C@H](CC(C)C)NC(=O)[C@H](Cc1ccccc1)NC(=O)[C@H](CO)NC(=O)[C@@H](NC(=O)[C@H](CC(=O)O)NC(=O)[C@H](CO)NC(=O)[C@@H](NC(=O)[C@H](Cc1ccccc1)NC(=O)[C@@H](NC(=O)CNC(=O)[C@H](CCC(=O)O)NC(=O)C(C)(C)NC(=O)[C@@H](N)Cc1c[nH]cn1)[C@@H](C)O)[C@@H](C)O)C(C)C)C(=O)N[C@@H](CCC(=O)O)C(=O)N[C@@H](Cc1c[nH]cn1)C(=O)N[C@@H](CC(C)C)C(=O)N[C@H](C(N)=O)C(C)C` [compound 83] (H-H[Aib]EGTFTSDVSFLK([AEEA-AEEA-γGlu-C20 diacid])EEAAQQRFLEHLV-NH2), the “Turbidity (pH 7)” value in data set [1] is 0.08. This molecule had a Fibril formation in data set [2] of 9070. For the same molecule, at GLP1R, the Selectivity is 54828. Moreover, the values for the EC50 at GLP1R and on SCTR were 0.0316 nM and 1580 nM, respectively.
